The source of these data is patent US12421277B2, “Anti-aging salmon roe tripeptide and preparation method and application thereof” (Shenzhen Porshealth Bioengineering Co., Ltd., priority 2023, dated 2025).

Where a SMILES comes first, the peptide text is derived from it.

A word on the AUC: it is the area under the concentration-time curve, a measure of exposure. Low values mean less exposure, high ones more exposure.

This data set is described as follows: Blood absorption of YLP in rats, UPLC-MS/MS. To be noted: rat, in vivo, po, SD rats, intragastric 100 mg/kg bw. How it is done:
In this research, SD rats are used, and divided into three groups: a normal group and salmon YLP groups (with a daily dosage of 100 mg/kg bw). The rats are fasted but allowed to drink water 12 h before the experiment begins. At 15 min, 45 min, 90 min, 180 min and 360 min after intragastric administration, all the rats are anesthetized with the 3% pentobarbital sodium, and blood is collected from abdominal aortas, followed by euthanasia. […]
• (1) The required samples are taken out for thawing, and uniformly mixed by a vortex. • (2) 40 μL of a mixed sample is taken, and 120 μL of methanol is added for shaking treatment for 10 min, and a resultant is centrifuged at a low temperature for 10 min. • (3) 70 μL of a supernatant solution is taken from the centrifuged sample for subsequent measurement. 4.2.2.2 Preparation of Standard Solution
Chromatographic separation is performed by using a Waters ACQUITY UPLC I-CLASS ultra-high performance liquid chromatographic device. Specific conditions are as follows: chromatographic column Waters UPLC HSS T3 ([…], 2.1 mm×100 mm)—mobile phase: A phase (water, 0.1% formic acid), B phase (methanol)—flow rate: 0.3 mL/min—injection volume: 5.0 μL—column temperature: 40° C. —single sample analysis time: 8 min.
A Waters XEVO TQ-XS tandem quadrupole mass spectrometer is used for mass spectrometry detection. Specific conditions are as follows: positive ion source voltage: 3.0 kV—cone voltage: 30 V—desolvation temperature: 500° C. —desolvation gas flow rate: […]—cone gas flow rate: […].
Data is expressed in the form of Mean±SD. Graphpad is used for data processing and significance analysis. […] A target peak area in polypeptide metabolic data is calculated by using TargetLynx software, and an allowable error of a retention time is 15 s. Concentration calculation is based on a standard curve method to obtain quantitative results.

Where the note is “15-360 min”, `CC(C)C[C@H](NC(=O)[C@@H](N)Cc1ccc(O)cc1)C(=O)N1CCC[C@H]1C(=O)O` [YLP] (H-Tyr-Leu-Pro-OH; N-terminus and C-terminus assumed) showed an AUC of 6.19 ng·h/mL. The Cmax (at 90 min, read-out: maximum content of YLP in blood) worked out at 1.31 ± 0.44 ng/mL. In addition, the Tmax (read-out: time of maximum content in blood (converted)) was 1.5 h.
